We go through one compound from article PMC4949196, “Binding interaction of a gamma-aminobutyric acid derivative with serum albumin: an insight by fluorescence and molecular modeling analysis” (SpringerPlus, 2016).

The Kd is the free concentration of one partner at which half of the binding sites on the other are occupied at equilibrium, for simple one-to-one binding. Lower therefore signals higher affinity.

Assay [1] addresses T1, bovine serum albumin (BSA) (Bos taurus, UniProt P02769).
T1 construct: gene ALB
Briefly: intrinsic tryptophan fluorescence quenching titration, Langmuir isotherm fit, room temperature, pH […]. The format is binding.

Assay [2] concerns the target T2, human serum albumin (HSA) (Homo sapiens, UniProt P02768).
T2 construct: gene ALB
The description is as above. The assay is classed as binding.

T2 sequence (P02768 25-609): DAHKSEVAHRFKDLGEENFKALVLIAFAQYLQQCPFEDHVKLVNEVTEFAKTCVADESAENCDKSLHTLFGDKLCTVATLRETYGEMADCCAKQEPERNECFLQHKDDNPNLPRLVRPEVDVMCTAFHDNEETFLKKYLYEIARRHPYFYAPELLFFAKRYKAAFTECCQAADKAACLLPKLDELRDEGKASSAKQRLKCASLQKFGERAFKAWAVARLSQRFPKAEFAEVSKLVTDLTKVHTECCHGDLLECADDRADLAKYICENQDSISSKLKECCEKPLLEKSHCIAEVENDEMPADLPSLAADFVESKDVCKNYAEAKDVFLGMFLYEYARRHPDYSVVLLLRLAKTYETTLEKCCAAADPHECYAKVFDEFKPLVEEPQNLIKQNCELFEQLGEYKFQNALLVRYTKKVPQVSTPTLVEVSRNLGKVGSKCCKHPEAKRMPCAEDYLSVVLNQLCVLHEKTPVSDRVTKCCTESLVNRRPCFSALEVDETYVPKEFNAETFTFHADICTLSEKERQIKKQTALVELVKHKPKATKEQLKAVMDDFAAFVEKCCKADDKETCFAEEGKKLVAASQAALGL
T1 sequence (P02769 25-607): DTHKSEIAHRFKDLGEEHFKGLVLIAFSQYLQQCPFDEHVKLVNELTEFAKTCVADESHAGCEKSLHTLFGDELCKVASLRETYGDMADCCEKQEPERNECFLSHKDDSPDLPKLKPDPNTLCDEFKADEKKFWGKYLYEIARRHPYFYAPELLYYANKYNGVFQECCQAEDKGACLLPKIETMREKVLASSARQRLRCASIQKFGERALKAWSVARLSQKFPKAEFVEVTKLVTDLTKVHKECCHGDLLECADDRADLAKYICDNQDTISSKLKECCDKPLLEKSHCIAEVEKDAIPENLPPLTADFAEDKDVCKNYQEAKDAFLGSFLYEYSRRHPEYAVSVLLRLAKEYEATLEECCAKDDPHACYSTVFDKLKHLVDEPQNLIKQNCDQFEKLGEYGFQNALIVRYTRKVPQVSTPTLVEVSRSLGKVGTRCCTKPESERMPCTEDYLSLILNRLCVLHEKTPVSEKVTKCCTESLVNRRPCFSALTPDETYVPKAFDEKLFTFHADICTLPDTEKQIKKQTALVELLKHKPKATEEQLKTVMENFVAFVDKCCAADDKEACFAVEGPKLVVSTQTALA

Consider `COC(=O)CCCNC(=O)c1ccc(N(CC(=O)OC(C)(C)C)c2ccc(OC)cc2)cc1` [compound 5, methyl 4-(4-((2-(tert-butoxy)-2-oxoethyl)(4-methoxyphenyl)amino)benzamido)butanoate], for which the Kd in assay [1] turned out to be 3.85 µM; in assay [2], 2.75 µM.
